Measurements published in US10881599B2, “Whitening composition including novel kaempferol-based compound derived from post-fermented tea” (AMOREPACIFIC CORPORATION, priority 2017, dated 2021).

Columns and labels:
mushroom tyrosinase = assay: Tyrosinase activity-inhibitory effect; format: biochemical; conditions: L-tyrosine, 20 minutes at 37° C., absorbance at 490 nm
Protocol: The tyrosinase activity-inhibitory effect of new material 33 was evaluated. Specifically, tyrosinase and tyrosine derived from mushrooms were obtained from Sigma Chemical. […] Tyrosinase activity was assessed by measuring the absorbance at 490 nm using a microplate reader (Bio-Rad 3550, Richmond, Calif., U.S.A.) after an enzyme reaction for 20 minutes at 37° C.

Mel-Ab cell line = assay: Melanin production-inhibitory effect (Dooley's method); format: cell-based, C57BL/6; conditions: Mel-Ab cells, melanin after 5 days, absorbance at 400 nm

`OC[C@H]1O[C@@H](Oc2ccc(O)cc2)[C@H](O)[C@@H](O)[C@@H]1O` [Arbutin, reference compound] was tested. Which “Tyrosinase activity-inhibitory effect IC50” value (mushroom tyrosinase) did it give?
Its value is 149 ppm.

`O=c1cc(CO)occ1O` [Kojic acid, reference compound] was tested. Which “Melanin production-inhibitory effect IC50” value (Mel-Ab cell line) did it give?
Its value is 39.36 ppm.
